Where two headings read alike, the source gives them in different places. Blank lines part the entries; values can stand above or below the compound they belong to.
Key:
[1] = tested on: Spontaneously Hypertensive rat; experiment: antihypertensive activity, Spontaneously Hypertensive Rat (Table II); assay type: in vivo; details: for antihypertensive effect (in words): conclusion from Table II (SHR, and DOCA for Examples I-IV)
Description: Spontaneously Hypertensive Rat Male rats weighing 300-400 g, previously conditioned to the procedure, are prewarmed in a heating chamber (30° C.) for 10-20 min. and subsequently restrained in a wire holder at that temperature. Systolic blood pressure and heart rate are measured by the tailcuff technique using a pneumatic pulse transducer and a biotachometer before, and 2, 4, and 24 hours after oral administration of vehicle (0.25% Methocel in water) or test compounds suspended in vehicle at a dose volume equivalent to 5 ml/kg. Blood pressure and heart rate data are reported as changes from zero-hour measurements with vehicle control groups run periodically to confirm that the vehicle has no effect. Testing was carried out on the compounds of Examples I-XII for antihypertensive activity. In the case of all the compounds testing was carried out on the Spontaneously Hypertensive rat as described hereinbefore. In the case of the compounds of Examples I-IV testing was also carried out on the DOCA-salt Hypertensive Rat. The compound of Example I was tested as its monochloride 2-propanolate hydrate, i.e. as C22 […] ClN4 O4 S.HCl.0.2(CH3)2 CHOH.0.15H2 O in Tests 1-5; and as the 3/4 mole hydrochloride, i.e. C22 […] ClN4 O4 S: 3/4 HCl in Tests 3a, 4a, 5a-5d. Test results are set forth in Table II below wherein SHR stands for Spontaneously Hypertensive rat, DOCA stands for DOCA-salt Hypertensive Rat, ΔBP stands for the change in systolic blood pressure in mm Hg, ΔHR stands for the change in mean heart rate in beats per minute and the times set forth are the times after dosing. A peak change in ΔBP of more than 20 is considered as indicating activity.

[2] = tested on: DOCA-salt Hypertensive Rat; experiment: antihypertensive activity, DOCA-salt Hypertensive Rat (Table II); assay type: in vivo; details: for ΔBP 4 hours / ΔHR 4 hours: DOCA
Description: DOCA-salt Hypertensive Rat
Male rats initially weighing 80-100 g, are made hypertensive by surgically implanting two 50 mg pellets of deoxycorticosterone acetate (DOCA) under the skin of the abdomen of each rat and providing 1% saline ad libitum. After three weeks, the 1% saline is replaced with distilled water. One week later, animals are anesthetized with methoxyflurane and a catheter advanced into the aorta via the left common corotid artery to record mean arterial blood pressure (MABP) and heart rate. The heparin-filled catheter is passed beneath the skin and exteriorized behind the head. Two days later, MABP and heart rate are determined before and four hours after oral administration of vehicle (0.25% Methocel in 0.9% saline) or test compound suspended in vehicle at a dose volume equivalent to 5 ml/kg.
Testing was carried out on the compounds of Examples I-XII for antihypertensive activity. In the case of all the compounds testing was carried out on the Spontaneously Hypertensive rat as described hereinbefore. In the case of the compounds of Examples I-IV testing was also carried out on the DOCA-salt Hypertensive Rat. The compound of Example I was tested as its monochloride 2-propanolate hydrate, i.e. as C22 H27 ClN4 O4 S.HCl.0.2(CH3)2 CHOH.0.15H2 O in Tests 1-5; and as the 3/4 mole hydrochloride, i.e. C22 H27 ClN4 O4 S: 3/4 HCl in Tests 3a, 4a, 5a-5d. Test results are set forth in Table II below wherein SHR stands for Spontaneously Hypertensive rat, DOCA stands for DOCA-salt Hypertensive Rat, ΔBP stands for the change in systolic blood pressure in mm Hg, ΔHR stands for the change in mean heart rate in beats per minute and the times set forth are the times after dosing. A peak change in ΔBP of more than 20 is considered as indicating activity.

α1 = experiment: in vitro α1 binding, [3H]WB-4101 (Table IV); details: for IC50: [3H]WB-4101, brain tissue, 50 mM Hepes.KOH, pH 7.4, read-out: α1 Binding IC50
Description: (§1) In this Example the compounds of Examples I-XI were tested in vitro for α1 and α2 binding. The compound of Example I was tested as its monochloride 2-propanolate hydrate, i.e. as C22 […] CLN4 O4 S .HCl.0.2(CH3)2 CHOH 0.15H2 O. In the testing specific brain tissues were prepared as sources of binding sites. Aliquots of the washed members are incubated with a low concentration of […]. After incubation at suitable temperature, the reaction mixture is treated to separate the membrane-bound radioligand Radioactivity is measured. Linear regression analysis of the probit value for the percent of binding occurring in the presence of varying concentrations of the compound of interest plotted against the concentration of the compound yields concentrations which inhibit 50% specific binding, the IC50. The assay buffer is 50 mM Hepes.KOH, pH 7.4. The ligand is [^3 H]WB-4101 from New England Nuclear for α1 and [^3 H]Clonidine from New England Nuclear for α2. The results are considered against phentolamine methanesulfonate (Reference) which is considered a good α-binder.

α2 = experiment: in vitro α2 binding, [3H]Clonidine (Table IV); details: for IC50: [3H]Clonidine, brain tissue, 50 mM Hepes.KOH, pH 7.4, read-out: α2 Binding IC50
Description: as §1

[3] = SHR, 3.0 mg/kg oral, as 3/4 mole hydrochloride
[4] = SHR, 30 mg/kg oral, as 3/4 mole hydrochloride
[5] = SHR, 3.0 to 30 mg/kg body weight
[6] = 0.3 mg/kg oral, as 3/4 mole hydrochloride
[7] = 3.0 mg/kg oral, as 3/4 mole hydrochloride
[8] = 30 mg/kg oral, as 3/4 mole hydrochloride
[9] = 100 mg/kg oral, as 3/4 mole hydrochloride

IC50 (α1): 1.48 nM
α2 binding activity (in words) (α2): α2 binding activity
IC50 (α2): 555 nM
SMILES: COc1ccccc1N1CCN(CCCN2Cc3cc(Cl)c(S(N)(=O)=O)cc3C2=O)CC1 [Example I, 6-chloro-2,3-dihydro-2-[3-[4-(2-methoxyphenyl)-1-piperazinyl]propyl]-3-oxo-1H-isoindole-5-sulfonamide]
ΔBP 4 hours ([1]; SHR, 0.3 mg/kg oral): -18 ± 6 mm Hg
ΔHR 4 hours ([1]; SHR, 0.3 mg/kg oral): 11 ± 3 beats per minute
ΔBP 4 hours ([1]; SHR, 3.0 mg/kg oral): -43 ± 7 mm Hg
ΔHR 4 hours ([1]; SHR, 3.0 mg/kg oral): 10 ± 15 beats per minute
ΔBP 2 hours [1, 3]: -23 ± 8 mm Hg
ΔBP 4 hours [1, 3]: -10 ± 5 mm Hg
ΔHR 2 hours [1, 3]: 8 ± 10 beats per minute
ΔHR 4 hours [1, 3]: 14 ± 18 beats per minute
ΔBP 2 hours ([1]; SHR, 30 mg/kg oral): -84 ± 10 mm Hg
ΔHR 2 hours ([1]; SHR, 30 mg/kg oral): 16 ± 15 beats per minute
ΔBP 2 hours [1, 4]: -97 ± 10 mm Hg
ΔBP 4 hours [1, 4]: -52 ± 13 mm Hg
ΔHR 2 hours [1, 4]: 16 ± 8 beats per minute
ΔHR 4 hours [1, 4]: 2 ± 9 beats per minute
systolic blood pressure / antihypertensive activity (in words) [1, 5]: dose-dependent decrease in systolic blood pressure
time at which antihypertensive effect seen [1, 5]: about two
antihypertensive effect (in words) [1]: good antihypertensive effect without significantly affecting heart rate
antihypertensive activity (in words) ([2]; DOCA-hypertensive rat): demonstrates activity in the DOCA-hypertensive rat
ΔBP 4 hours [2, 6]: -14 ± 5 mm Hg
ΔHR 4 hours [2, 6]: -8 ± 20 beats per minute
ΔBP 4 hours [2, 7]: -15 ± 6 mm Hg
ΔHR 4 hours [2, 7]: -6 ± 24 beats per minute
ΔBP 4 hours ([2]; 30 mg/kg oral): -49 ± 9 mm Hg
ΔHR 4 hours ([2]; 30 mg/kg oral): 59 ± 28 beats per minute
ΔBP 4 hours [2, 8]: -53 ± 9 mm Hg
ΔHR 4 hours [2, 8]: 53 ± 26 beats per minute
ΔBP 4 hours [2, 9]: -75 ± 3 mm Hg
ΔHR 4 hours [2, 9]: 23 ± 32 beats per minute
α1 binding activity (in words) (α1; listed as MJ 15037): demonstrates activity in binding both α1 and α2 sites
α2 binding activity (in words) (α2; listed as MJ 15037): demonstrates activity in binding both α1 and α2 sites

IC50 (α1): 23.4 nM
α2 binding activity (in words) (α2): α2 binding activity
IC50 (α2): 806 nM
SMILES: COc1ccccc1N1CCN(CCN2Cc3cc(Cl)c(S(N)(=O)=O)cc3C2=O)CC1 [Example III, 6-Chloro-2,3-dihydro-2-[2-[4-(2-methoxyphenyl)-1-piperazinyl]ethyl]-3-oxo-1H-isoindole-5-sulfonamide]
ΔBP 2 hours ([1]; SHR, 30 mg/kg oral): -47 ± 14 mm Hg
ΔBP 4 hours ([1]; SHR, 30 mg/kg oral): -69 ± 20 mm Hg
ΔHR 2 hours ([1]; SHR, 30 mg/kg oral): 10 ± 3 beats per minute
ΔHR 4 hours ([1]; SHR, 30 mg/kg oral): 10 ± 10 beats per minute
antihypertensive effect (in words) [1]: good antihypertensive effect without significantly affecting heart rate
ΔBP 4 hours ([2]; 30 mg/kg oral): -62 ± 13 mm Hg
ΔHR 4 hours ([2]; 30 mg/kg oral): 63 ± 32 beats per minute

Reference: patent publication US4585773A, “Isoindolinyl-alkyl-piperazines” (Bristol-Myers Company, priority 1984, dated 1986)
